From patent publication US20240158348A1, “HERBICIDAL CYCLIC AMIDES N-SUBSTITUTED WITH A HALOALKYLSULFONYLANILIDE GROUP” (FMC Corporation, priority 2021, published 2024)

Experiments:
Assay type in all cases: in vivo
[1] = system: foxtail, giant (giant foxtail, Setaria faberi); assay: Test C preemergence, giant foxtail; conditions: 0 is no effect, 100 is complete control
In short: (§1)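 Herbicidal effect was estimated visually on a 0–100 scale 10 or 12 days after spraying. Formulation: non-phytotoxic solvent mixture with surfactant. Timing: directed soil spray after sowing, or postemergence on seedlings bearing one or two leaves.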

kochia (Bassia scoparia) = assay: Test C preemergence, kochia; conditions: 0 is no effect, 100 is complete control
In short: as §1

[2] = system: oat, wild (wild oat, Avena fatua); assay: Test C postemergence, wild oat; conditions: for Oat, Wild plant response rating: visual injury, 0 to 100 scale (0 no effect, 100 complete control); for Plant response rating (0 to 100 scale), Oat, Wild: 0 is no effect, 100 is complete control
[3] = system: pigweed, palmer (palmer amaranth, Amaranthus palmeri); assay: Test C postemergence, palmer amaranth; conditions: visual injury, 0 to 100 scale (0 no effect, 100 complete control)
In short: as §1

[4] = system: ragweed (common ragweed, Ambrosia artemisiifolia); assay: Test C postemergence, ragweed; conditions: visual injury, 0 to 100 scale (0 no effect, 100 complete control)
In short: as §1

soybean (Glycine max) = assay: Test C postemergence, soybean; conditions: visual injury, 0 to 100 scale (0 no effect, 100 complete control)
[5] = system: barnyardgrass (Echinochloa crusgalli); assay: Test D flooded paddy test, barnyardgrass; parameters: key: 0 = no effect, 100 = complete control; conditions: 250 g ai/ha, Flood; applied to paddy water at 2-leaf stage; visual rating after 13 days; scale 0 (no effect) to 100 (complete control)
In short: (§2)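 Under 3 cm of standing water, kept constant after treatment, 2-leaf plants received compound via the paddy water. Ratings on a 0–100 control scale were assigned visually after 13 greenhouse days; a dash denotes no test result.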

rice (Oryza sativa) = assay: Test D flooded paddy test, rice; parameters: key: 0 = no effect, 100 = complete control; conditions: 250 g ai/ha, Flood; applied to paddy water at 2-leaf stage; visual rating after 13 days; scale 0 (no effect) to 100 (complete control)
In short: as §2

[6] = system: sedge, umbrella (small-flower umbrella sedge, Cyperus difformis); assay: Test D flooded paddy test, umbrella sedge; parameters: key: 0 = no effect, 100 = complete control; conditions: 250 g ai/ha, Flood; applied to paddy water at 2-leaf stage; visual rating after 13 days; scale 0 (no effect) to 100 (complete control)
In short: as §2

| SMILES | Plant response rating (0 to 100 scale), Foxtail, Giant ([1]; 31 g ai/ha Preemergence) | Plant response rating (0 to 100 scale), Foxtail, Giant ([1]; 125 g ai/ha Preemergence) | Plant response rating (0 to 100 scale), Kochia (kochia (Bassia scoparia); 31 g ai/ha Preemergence) | Plant response rating (0 to 100 scale), Kochia (kochia (Bassia scoparia); 125 g ai/ha Preemergence) | Oat, Wild plant response rating ([2]; 31 g ai/ha Postemergence) | Plant response rating (0 to 100 scale), Oat, Wild ([2]; 125 g ai/ha Postemergence) | Pigweed, Palmer plant response rating ([3]; 31 g ai/ha Postemergence) | Pigweed, Palmer plant response rating ([3]; 125 g ai/ha Postemergence) | Ragweed plant response rating ([4]; 31 g ai/ha Postemergence) | Ragweed plant response rating ([4]; 125 g ai/ha Postemergence) | Soybean plant response rating (soybean (Glycine max); 31 g ai/ha Postemergence) | Soybean plant response rating (soybean (Glycine max); 125 g ai/ha Postemergence) | Plant response rating, Barnyardgrass [5] | Plant response rating, Rice (rice (Oryza sativa)) | Plant response rating, Sedge, Umbrella [6] | Oat, Wild plant response rating ([2]; 125 g ai/ha Postemergence) |
| --- | --- | --- | --- | --- | --- | --- | --- | --- | --- | --- | --- | --- | --- | --- | --- | --- |
| Cc1cc(Cl)c(N(COC(=O)C(C)(C)C)S(=O)(=O)C(F)(F)F)cc1N1CCC(OC2CC2)C1=O (stereo not drawn) [Compound 33] | 70 | 100 | 100 | 100 | 30 | 70 | 20 | 80 | 90 | 90 | 80 | 100 | 90 | 45 | 90 |  |
| Cc1cc(C)c(N2CCC(OC3COC3)C2=O)cc1NS(=O)(=O)C(F)(F)F (stereo not drawn) [Compound 34] | 90 | 90 | 90 | 100 | 30 | 70 | 70 | 100 | 90 | 90 | 60 | 70 | 35 | 25 | 80 |  |
| Cc1c(NS(=O)(=O)C(F)(F)F)cc(N2CCCC(OC3CC3)C2=O)c(C)c1F (stereo not drawn) [Compound 35] | 90 | 100 | 20 | 80 | 40 | 70 | 40 | 70 | 60 | 90 | 60 | 60 | 0 | 0 | 95 |  |
| CC(=O)N(c1cc(N2CCC(OC3CC3)C2=O)c(C)cc1Cl)S(=O)(=O)C(F)(F)F (stereo not drawn) [Compound 38] | 80 | 100 | 100 | 100 | 50 | 60 | 50 | 80 | 80 | 90 | 70 | 80 | 0 | 0 | 75 |  |
| Cc1c(N2CCCC(OC3CCC3)C2=O)cc(N(COC(=O)C(C)(C)C)S(=O)(=O)C(F)(F)F)c(C)c1F (stereo not drawn) [Compound 39] | 0 | 10 | 20 | 60 | 0 | 20 | 0 | 20 | 30 | 80 | 50 | 90 | 35 | 0 | 95 |  |
| COC(=O)N(c1cc(N2CCC(OC3CC3)C2=O)c(C)cc1Cl)S(=O)(=O)C(F)(F)F (stereo not drawn) [Compound 40] | 100 | 100 | 90 | 100 | 50 | 80 | 30 | 90 | 60 | 80 | 70 | 80 | 0 | 0 | 90 |  |
| Cc1cc(C)c(N2CCC(OCC3CC3(F)F)C2=O)cc1NS(=O)(=O)C(F)(F)F (stereo not drawn) [Compound 41] | 100 | 100 | 100 | 100 | 30 |  | 50 | 90 | 50 | 70 | 90 | 90 | 15 | 10 | 70 | 30 |
